Laboratory results from patent US8063026B2, “Method of palliating lower urinary tract infections by treatment with mannan oligosaccharides” (priority 2006, dated 2011).

Tested on: UTI symptoms
Experiment: Treatment of UTI symptoms in a patient (case reports)
Format: in vivo, human
Details: recurrent UTI episodes about 48 hours after sex, 1 tablet twice daily for five days
Procedure: A patient had been experiencing urinary tract infections since 1999. Episodes were very painful and invariably occurred about 48 hours after having sex. […] This pattern persisted for 6 years.
During an episode of UTI symptoms (urge to urinate; severe burning with urination; blood in urine), 100 mg MOS was administered to a patient (weighing approximately 50 kg) as a tablet (BioMOS® tablets, Alltech)-1 tablet before and after sex, plus three tablets per day.
Beginning during a symptom-free period, 100 mg MOS was administered to a patient (weighing approximately 50 kg) as a tablet (BioMOS® tablets, Alltech), once per day plus one pill with sex.
During a symptom-free period, 500 mg of MOS was administered as a capsule (capsules prepared from bulk CitriStim™, Archer Daniels Midland Alliance Nutrition, Inc., Quincy, Ill.; 1 or 2 capsules daily). […] Two capsules (CitriStim) were administered (three hours apart), followed 2 hours later by 100 mg MOS in tablet form (BioMOS® tablets, Alltech). […] Two MOS tablets were administered that morning (4 hours apart). In the late afternoon, a CitriStim capsule was administered, and one capsule was administered twice the following day.

trimethoprim-sulfamethoxazole [Bactrin DS®]
Relief of UTI symptoms: quickly relieve symptoms

O=C(O)c1cn(C2CC2)c2cc(N3CCNCC3)c(F)cc2c1=O [Cipro®, ciprofloxacin]
Relief of UTI symptoms: quickly relieve symptoms
